Laboratory results reported in patent publication US9796700B2 (Celgene CAR LLC, priority 2013, dated 2017).

Target: Erk1 (Homo sapiens (Human), UniProt P27361)
Assay: Protein Mass Modification Assay (intact protein MALDI)
Assay type: binding
How it was run: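 Human Erk1 was incubated 60 min at room temperature with a 10-fold molar excess of compound, then analysed as intact protein by MALDI with sinapinic acid matrix. The centroid mass shift versus untreated protein was divided by compound molecular weight to give percent modified protein.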

Erk1, sequence (P27361 whole entry, looked up): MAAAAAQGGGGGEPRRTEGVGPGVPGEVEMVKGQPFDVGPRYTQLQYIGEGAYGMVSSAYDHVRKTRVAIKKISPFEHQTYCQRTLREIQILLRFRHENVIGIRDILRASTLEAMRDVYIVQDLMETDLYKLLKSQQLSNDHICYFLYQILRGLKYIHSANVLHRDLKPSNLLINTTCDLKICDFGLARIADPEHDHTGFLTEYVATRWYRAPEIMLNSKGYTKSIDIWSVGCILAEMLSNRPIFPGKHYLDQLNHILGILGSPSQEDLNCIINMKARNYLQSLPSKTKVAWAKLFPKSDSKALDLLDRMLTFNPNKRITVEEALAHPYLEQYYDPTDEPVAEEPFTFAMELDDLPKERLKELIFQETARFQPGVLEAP

| Structure (SMILES) | ERK1 Mass Mod (%) |
| --- | --- |
| C=CC(=O)N(C)c1ccccc1Nc1nc(Nc2cc(C(N)=O)ccc2C#N)ncc1Cl [Compound I-196, 3-((5-chloro-4-((2-(N-methylacrylamido)phenyl)amino)pyrimidin-2-yl)amino)-4-cyanobenzamide] | E (provided a mass modification of ≧70%) |
| C=CC(=O)Nc1ccccc1Nc1nc(Nc2cc(C(=O)NOCCO)ccc2C#N)ncc1Cl [Compound I-202, 3-((4-((2-acrylamidophenyl)amino)-5-chloropyrimidin-2-yl)amino)-4-cyano-N-(2-hydroxyethoxy)benzamide] | F (key: E: provided a mass modification of ≧70%; F: provided a mass modification of 31-69%; G: proived a mass modification ≦30%) |
| C=CC(=O)Nc1cc(F)ccc1Nc1nc(Nc2cc(C(N)=O)ccc2C#N)ncc1Cl [Compound I-207, 3-(4-(2-acrylamido-4-fluorophenylamino)-5-chloropyrimidin-2-ylamino)-4-cyanobenzamide] | E (provided a mass modification of ≧70%) |
| C=CC(=O)Nc1ccccc1Nc1nc(Nc2ccc(F)cc2C)ncc1Cl [Compound I-209, N-(2-((5-chloro-2-((4-fluoro-2-methylphenyl)amino)pyrimidin-4-yl)amino)phenyl)acrylamide] | F (provided a mass modification of 31-69%) |
| C=CC(=O)Nc1ccccc1Nc1nc(Nc2ccc(F)cc2OC)ncc1Cl [Compound I-210, N-(2-((5-chloro-2-((4-fluoro-2-methoxyphenyl)amino)pyrimidin-4-yl)amino)phenyl)acrylamide] | F (provided a mass modification of 31-69%) |
| C=CC(=O)Nc1cc(F)ccc1Nc1nc(Nc2ccc(F)cc2OC)ncc1Cl [Compound I-213, N-(2-((5-chloro-2-((4-fluoro-2-methoxyphenyl)amino)pyrimidin-4-yl)amino)-5-fluorophenyl)acrylamide] | E (provided a mass modification of ≧70%) |
| C=CC(=O)Nc1ccccc1Nc1nc(Nc2cc(C(N)=O)ccc2C(F)(F)F)ncc1Cl [Compound I-220, 3-((4-((2-acrylamidophenyl)amino)-5-chloropyrimidin-2-yl)amino)-4-(trifluoromethyl)benzamide] | E (key: E: provided a mass modification of ≧70%; F: provided a mass modification of 31-69%; G: proived a mass modification ≦30%) |
| C=CC(=O)Nc1ccccc1Nc1nc(Nc2cc(C(N)=O)ccc2C)ncc1C [Compound I-224, 3-(4-(2-acrylamidophenylamino)-5-methylpyrimidin-2-ylamino)-4-methyl benzamide] | E (provided a mass modification of ≧70%) |
| C=CC(=O)Nc1ccccc1Nc1nc(Nc2cc(C(=O)O)ccc2C)ncc1Cl [Compound I-225, 3-((4-((2-acrylamidophenyl)amino)-5-chloropyrimidin-2-yl)amino)-4-methylbenzoic acid] | F (provided a mass modification of 31-69%) |
| C#CC(=O)NCCCOc1cc(C)c(Nc2ncc(Cl)c(Nc3ccccc3NC(=O)C=C)n2)cc1C(N)=O [Compound I-227, 5-((4-((2-acrylamidophenyl)amino)-5-chloropyrimidin-2-yl)amino)-4-methyl-2-(3-propiolamidopropoxy)benzamide] | E (provided a mass modification of ≧70%) |
| C=CC(=O)Nc1cc(C)ccc1Nc1nc(Nc2ccnc(Cl)c2)ncc1Cl [Compound I-230, N-(2-((5-chloro-2-((2-chloropyridin-4-yl)amino)pyrimidin-4-yl)amino)-5-methylphenyl)acrylamide] | E (provided a mass modification of ≧70%) |
| C=CC(=O)Nc1ccccc1Nc1nc(Nc2cc(C(=O)NC)c(F)cc2C)ncc1Cl [Compound I-231, 5-((4-((2-acrylamidophenyl)amino)-5-chloropyrimidin-2-yl)amino)-2-fluoro-N,4-dimethylbenzamide] | E (provided a mass modification of ≧70%) |
| C=CC(=O)Nc1ccccc1Nc1nc(Nc2cc(C(=O)NCCO)c(F)cc2C)ncc1Cl [Compound I-232, 5-((4-((2-acrylamidophenyl)amino)-5-chloropyrimidin-2-yl)amino)-2-fluoro-N-(2-hydroxyethyl)-4-methylbenzamide] | E (provided a mass modification of ≧70%) |
| C=CC(=O)Nc1cc(C)ccc1Nc1nc(Nc2cc(C(=O)NC)c(F)cc2C)ncc1Cl [Compound I-233, 5-((4-((2-acrylamido-4-methylphenyl)amino)-5-chloropyrimidin-2-yl)amino)-2-fluoro-N,4-dimethylbenzamide] | E (provided a mass modification of ≧70%) |
| C=CC(=O)Nc1cc(C)ccc1Nc1nc(Nc2cc(C(=O)NCCO)c(F)cc2C)ncc1Cl [Compound I-234, 5-((4-((2-acrylamido-4-methylphenyl)amino)-5-chloropyrimidin-2-yl)amino)-2-fluoro-N-(2-hydroxyethyl)-4-methylbenzamide] | F (provided a mass modification of 31-69%) |
| C=CC(=O)Nc1cc(C)ccc1Nc1nc(Nc2ccnc(OC)c2)ncc1Cl [Compound I-235, N-(2-((5-chloro-2-((2-methoxypyridin-4-yl)amino)pyrimidin-4-yl)amino)-5-methylphenyl)acrylamide] | E (provided a mass modification of ≧70%) |
| C=CC(=O)Nc1cc(C)ccc1Nc1nc(Nc2ccncc2C)ncc1Cl [Compound I-236, N-(2-((5-chloro-2-((3-methylpyridin-4-yl)amino)pyrimidin-4-yl)amino)-5-methylphenyl)acrylamide] | E (provided a mass modification of ≧70%) |
| C=CC(=O)Nc1cc(C)ccc1Nc1nc(Nc2cc(C(N)=O)ccn2)ncc1Cl [Compound I-238, 2-((4-((2-acrylamido-4-methylphenyl)amino)-5-chloropyrimidin-2-yl)amino)isonicotinamide] | E (provided a mass modification of ≧70%) |
| C=CC(=O)Nc1cc(C)ccc1Nc1nc(Nc2cc(C(C)=O)ccc2C)ncc1Cl [Compound I-239, N-(2-((2-((5-acetyl-2-methylphenyl)amino)-5-chloropyrimidin-4-yl)amino)-5-methylphenyl)acrylamide] | E (key: E: provided a mass modification of ≧70%; F: provided a mass modification of 31-69%; G: proived a mass modification ≦30%) |
| C=CC(=O)Nc1cc(OC)ccc1Nc1nc(Nc2cc(Cl)nc(OC)c2)ncc1Cl [Compound I-245, N-(2-((5-chloro-2-((2-chloro-6-methoxypyridin-4-yl)amino)pyrimidin-4-yl)amino)-5-methoxyphenyl)acrylamide] | F (provided a mass modification of 31-69%) |
| C=CC(=O)Nc1ccccc1Nc1nc(Nc2cc(Cl)nc(OC)c2)ncc1Cl [Compound I-246, N-(2-((5-chloro-2-((2-chloro-6-methoxypyridin-4-yl)amino)pyrimidin-4-yl)amino)phenyl)acrylamide] | E (provided a mass modification of ≧70%) |
| C=CC(=O)Nc1ccccc1Nc1nc(Nc2ccc(N3CCOCC3)cc2OC)ncc1C(N)=O [Compound I-249, 4-((2-acrylamidophenyl)amino)-2-((2-methoxy-4-morpholinophenyl)amino)pyrimidine-5-carboxamide] | F (provided a mass modification of 31-69%) |
| C=CC(=O)Nc1ccccc1Nc1nc(Nc2ccc(N3CCOCC3)cc2OC)ncc1C(=O)NC [Compound I-250, 4-(2-acrylamidophenylamino)-2-(2-methoxy-4-morpholinophenylamino)-N-methylpyrimidine-5-carboxamide] | G (proived a mass modification ≦30%) |
| C=CC(=O)Nc1ccccc1Nc1nc(Nc2ccc(N3CCOCC3)cc2OC)ncc1C(=O)NCC [Compound I-251, 4-((2-acrylamidophenyl)amino)-N-ethyl-2-((2-methoxy-4-morpholinophenyl)amino)pyrimidine-5-carboxamide] | G (proived a mass modification ≦30%) |
| C=CC(=O)Nc1ccccc1Nc1nc(Nc2ccc3c(c2OC)CCCC(=O)N3CCN2CCOCC2)ncc1C(N)=O [Compound I-252, 4-((2-acrylamidophenyl)amino)-2-((6-methoxy-1-(2-morpholinoethyl)-2-oxo-2,3,4,5-tetrahydro-1H-benzo[b]azepin-7-yl)amino)pyrimidine-5-carboxamide] | F (provided a mass modification of 31-69%) |
| C=CC(=O)Nc1ccccc1Nc1nc(Nc2ccc3c(c2OC)CCCC(=O)N3CCCN2CCOCC2)ncc1C(N)=O [Compound I-253, 4-((2-acrylamidophenyl)amino)-2-((6-methoxy-1-(3-morpholinopropyl)-2-oxo-2,3,4,5-tetrahydro-1H-benzo[b]azepin-7-yl)amino)pyrimidine-5-carboxamide] | F (provided a mass modification of 31-69%) |
| C=CC(=O)Nc1ccccc1Nc1nc(Nc2ccc(OCCCN3CCOCC3)cc2OC)ncc1C(N)=O [Compound I-254, 4-((2-acrylamidophenyl)amino)-2-((2-methoxy-4-(3-morpholinopropoxy)phenyl)amino)pyrimidine-5-carboxamide] | E (provided a mass modification of ≧70%) |
| C=CC(=O)Nc1ccccc1Oc1nc(Nc2ccc(N3CCC[C@@H]3CO)cc2OC)ncc1C(N)=O [Compound I-263, (R)-4-(2-acrylamidophenoxy)-2-((4-(2-(hydroxymethyl)pyrrolidin-1-yl)-2-methoxyphenyl)amino)pyrimidine-5-carboxamide] | E (provided a mass modification of ≧70%) |
| C=CC(=O)Nc1ccccc1Oc1nc(Nc2ccc(N3CCC[C@@H]3C(N)=O)cc2OC)ncc1C(N)=O [Compound I-266, (R)-4-(2-acrylamidophenoxy)-2-((4-(2-carbamoylpyrrolidin-1-yl)-2-methoxyphenyl)amino)pyrimidine-5-carboxamide] | E (provided a mass modification of ≧70%) |
